Like-named read-outs stand apart in the source and are kept apart here. Marks after values point to notes of the source that are not given here.
Experiments:
[1] = UV/vis absorption titration, apparent stability constant with Al^3+; format: binding; conditions: ligand 30 μM, DMSO/30 mM HEPES pH 7.4, I = 0.1 (NaNO3) (7/3), 37 °C
Excerpt: (§1) Although simple comparison of the stability of metal complexes is difficult due to the different units for 1:1 complexation (M^–1) and 1:2 complexation (M^–2), it is likely that the thermodynamic stability of Co^2+-(1)2 and Fe^2+-(1)2 complexes are similar to that of Zn^2+-1, Ni^2+-1, and Cu^2+-1 complexes.[40]
(§2) All reagents and solvents were purchased at the highest commercial quality and were used without further purification. Anhydrous DMF was obtained by distillation from calcium hydride. All aqueous solutions were prepared using deionized and distilled water. Melting points were measured using a Yanaco MP-J3 Micro Melting Point apparatus and are uncorrected. UV/vis absorption spectra were recorded on a JASCO V-630 spectrophotometer at 37 °C. […] The apparent stability constants of metal–ligand complexes (Ks) were calculated by using the Bind Works 1.0 software provided by CSC (Calorimetry Science Corp.), an interactive PC software for the analysis of Binding Isotherms on Isothermal Titration Calorimeters (ITCs), to which the change in absorption values obtained by the UV/vis absorption titrations are input.[62] IR spectra were measured with a PerkinElmer FT-IR spectrophotometer (Spectrum 100) at room temperature. ^1H (300 and 400 MHz) NMR spectra were recorded on a JEOL Always 300 spectrometer and a JEOL Always 400 spectrometer, respectively. […]

Jurkat cells = assay: MTT assay of Jurkat cells, effect of metal ions and incubation time on cytotoxicity of ligands; format: cell-based, human; conditions: Homo sapiens, Jurkat, no metal
Method: Next, we examined the effect of complexation of 1, 2, BAPTA, and BAPTA-AM with metal ions such as Cu(NO3)2, Zn(NO3)2, FeSO4, Co(NO3)2, and NiSO4 on their cytotoxicity against Jurkat cells. Mixture of ligands and metal ions were incubated for 1 h at 37 °C, and added to Jurkat cells for incubation for 12, 24, and 48 h at [ligand] = 0.78–25 μM and [M^2+] = 1.71–37.5 μM ([ligand]: [M^2+] = 1:1.5). After that, MTT assays were carried out, as shown in Figure S3 of the Supporting Information.
IMR-90 cells in DMEM medium with 10% FBS (1.5 × 10^5 cells/mL) were seeded in to 96 well plates and incubated for 24 h at 37 °C, MTT assays with poly(bpy) ligands and their metal complexes (0–100 μM), cisplatin (0–100 μM), and actinomycin D (0–10 μM) were performed following the same procedure described above. These experiments were carried out at least three times. • (b) MTT assay in the presence of a caspase inhibitor. Jurkat cells were pre-treated with Z-VAD-fmk (15 μM) for 3 h, a general caspases inhibitor, followed by the treatment with 1 (1 μM), BABTA-AM (12.5 μM) and cisplatin (50 μM), respectively, for 24 h, and then MTT assay was carried out as described above. • (c) For evaluation of the effect of metal ions on the cytotoxicity of 1, 2, BAPTA, and BAPTA-AM, these ligands were incubated with metal ions such as Cu(NO3)2, Zn(NO3)2, FeSO4, Co(NO3)2, and NiSO4 for 1 h, respectively, and added to Jurkat cells. The whole mixtures were incubated for 12, 24, and 48 h at [ligand] = 0.78–25 μM and at [M^2+] = 1.71–37.5 μM ([ligand]/[M^2+] = 1:1.5). The MTT assays were conducted as described above.

[2] = UV/vis absorption titration, apparent stability constant with Zn^2+; format: binding; conditions: 37 °C, 1:1 complex
Method: (§3) All reagents and solvents were purchased at the highest commercial quality and were used without further purification. Anhydrous DMF was obtained by distillation from calcium hydride. All aqueous solutions were prepared using deionized and distilled water. Melting points were measured using a Yanaco MP-J3 Micro Melting Point apparatus and are uncorrected. UV/vis absorption spectra were recorded on a JASCO V-630 spectrophotometer at 37 °C. The UV/vis absorption titrations of 1 with metal ions were carried out by addition of 10 mM solutions of Zn(NO3)2, NiSO4, Co(NO3)2, Fe(NO3)2, and Al(NO3)3 in H2O and 10 mM solutions of Cu(NO3)2 in DMSO. The apparent stability constants of metal–ligand complexes (Ks) were calculated by using the Bind Works 1.0 software provided by CSC (Calorimetry Science Corp.), an interactive PC software for the analysis of Binding Isotherms on Isothermal Titration Calorimeters (ITCs), to which the change in absorption values obtained by the UV/vis absorption titrations are input.[62] IR spectra were measured with a PerkinElmer FT-IR spectrophotometer (Spectrum 100) at room temperature. ^1H (300 and 400 MHz) NMR spectra were recorded on a JEOL Always 300 spectrometer and a JEOL Always 400 spectrometer, respectively. Luminescence imaging studies were performed using a fluorescent microscope (Biorevo, BZ-9000, Keyence). […]

[3] = UV/vis absorption titration, apparent stability constant with Fe^2+; format: binding; conditions: ligand 30 μM, DMSO/30 mM HEPES pH 7.4 (7/3), 37 °C, approximate, assuming 1:1 complexation (1:2 complex)
Excerpt: as §1, §2

[4] = UV/vis absorption titration, apparent stability constant with Ni^2+; format: binding; conditions: 37 °C, 1:1 complex
Method: as §3

[5] = UV/vis absorption titration, apparent stability constant with Co^2+; format: binding; conditions: ligand 30 μM, DMSO/30 mM HEPES pH 7.4 (7/3), 37 °C, approximate, assuming 1:1 complexation (1:2 complex)
Excerpt: as §1, §2

[6] = UV/vis absorption titration, apparent stability constant with Cu^2+; format: binding; conditions: ligand 30 μM, DMSO/30 mM HEPES pH 7.4, I = 0.1 (NaNO3) (7/3), 37 °C, 1:1 complex
Method: as §3

[7] = ligand 30 μM, DMSO/30 mM HEPES pH 7.4, I = 0.1 (NaNO3) (7/3)

Question: With `c1ccc(-c2ccc(OCc3cc(COc4ccc(-c5ccccn5)nc4)cc(COc4ccc(-c5ccccn5)nc4)c3)cn2)nc1` [compound 1, 1,3,5-Tris(([2,2′-Bipyridin]-5-yloxy)methyl)benzene] as the compound, how does the “apparent stability constant log Ks with Al(NO3)3” value [1] read?
Answer: The value was less than 1.

Question: What about the EC50 (Jurkat cells; incubation 12 h (Figure 9), read-out: EC50 against Jurkat cells, metal-free ligand) of the same compound?
Answer: The EC50 was roughly 9000 nM.

Question: What about the EC50 (Jurkat cells; incubation 24 h (Figure 9b), read-out: EC50 against Jurkat cells, ligand alone) of the same compound?
Answer: Its EC50 is 137 nM.

Question: What about the EC50 (Jurkat cells; incubation 48 h (Figure 9, S4), read-out: EC50 against Jurkat cells, metal-free ligand) of the same compound?
Answer: Its EC50 is roughly 60 nM.

Question: And the Kd ([2]; DMSO/30 mM HEPES pH 7.4 (7/3), read-out: dissociation constant Kd (= 1/Ks) of Zn^2+ complex)?
Answer: The Kd was 280 ± 10 nM.

Question: What about the “apparent stability constant log Ks with Zn(NO3)2” value [2, 7] of the same compound?
Answer: The value was 6.56 ± 0.02 (1:1 complex).

Question: And the “apparent stability constant log Ks with Fe(NO3)2” value [3]?
Answer: Its value is >5.5 ^b (1:2 complex).

Question: And the Kd ([4]; DMSO/30 mM HEPES pH 7.4 (7/3), read-out: dissociation constant Kd (= 1/Ks) of Ni^2+ complex)?
Answer: The Kd was 610 ± 20 nM.

Question: What about the “apparent stability constant log Ks with NiSO4” value [4, 7] of the same compound?
Answer: The value was 6.21 ± 0.01 (1:1 complex).

Question: What about the “apparent stability constant log Ks with Co(NO3)2” value [5] of the same compound?
Answer: The value was >6 ^b (1:2 complex).

Question: What about the “apparent stability constant log Ks with Cu(NO3)2” value [6] of the same compound?
Answer: Its value is 7.29 ± 0.02 (1:1 complex).
